What is called EC50 is the concentration at which the effect is half-maximal.

Structures are written as SMILES.

The source of these data is patent publication US20260078119A1, “DEGRADER COMPOUNDS AND USES THEREOF” (Bristol-Myers Squibb Company, priority 2024, published 2026).

The target in assay [1] is T1, FAK (Homo sapiens, UniProt Q05397).
T1 construct: homozygous knock-in of a HiBiT tag (Promega Corporation, Madison, WI) to the C-terminus of the FAK gene in its natural genomic locus; endogenous in cells; host or cells: JHH-4-FAK-HiBiT clone d01 (CRISPR-Cas9 knock-in at the endogenous locus)
Nature of the assay: FAK-HiBiT Degradation Assay. Format: cell-based. The conditions noted are these: for DC50: JHH-4-FAK-HiBiT clone d01 cells, two hours incubation, 10-point dose response, 3-fold dilution starting at 1 μM, Nano-Glo HiBiT luminescence, read-out: FAK HiBiT EC50; for FAK HiBiT Ymin: lower limit of the four parameter fit (value A), Ymax derived using DMSO control, JHH-4-FAK-HiBiT cells, two hours. From the text: To generate JHH-4-FAK-HiBiT cells for the FAK degradation assay, JHH-4 cells (Japanese Collection of Research Biosources Cell Bank, Japan) were transfected with ribonucleoprotein reagents to introduce, by CRISPR-Cas9 editing, the homozygous knock-in of a HiBiT tag (Promega Corporation, Madison, WI) to the C-terminus of the FAK gene in its natural genomic locus. Clonal cell populations were established by expanding single cells after CRISPR-Cas9 editing, with a clonal cell line named JHH-4-FAK-HiBiT clone d01 confirmed by next generation DNA sequencing to contain the expected HiBiT edited FAK gene and was selected for FAK degradation screening. Cells were selected and maintained in complete DMEM media (DMEM, 10% Heat Inactivated FBS, and Non-Essential Amino Acids at 37° C. and 5% CO2). Cells were passaged every 3-4 days by reseeding 0.5×10^6 cells in a T75 flask.
Cells were dispensed into 384-well white plates (Corning #3570, NY) that were pre-spotted with compounds using an acoustic dispenser (Echo acoustic transfer system, Beckman Coulter Life Sciences, Carlsbad, CA) as a 10-point dose response curve with a 3-fold dilution starting at 1 μM and including a DMSO control. Twenty-five microliters of media containing 2000 JHH-4-FAK-HiBiT Clone d01 cells was dispensed per well. Assay plates were incubated at 37° C. with 5% CO2 for two hours. After incubation, 25 μL of Nano-Glo HiBiT Lytic Reagent Working Solution (Promega Corporation, Madison, WI) was added to each well and incubated at room temperature for 10 minutes protected from light. After 10 minutes, luminescence was read on a PHERAstar luminometer (BMG Labtech, Cary, NC).
To determine the half-maximal effective concentration (EC50) values for FAK-HiBIT degradation, a four parameter logistic model was used: (Sigmoidal Dose-Response Model)(FIT=(A+((B−A)/1+((C/x)^D)))) where C is the inflection point (EC50), D is the Hill slope, and A and B are the low and high limits of the fit respectively). The lower limit of the fit (value A) is referred to as Ymin. The maximum limit constraint, Ymax, was derived using DMSO control. The curves were processed and evaluated using Dotmatics Atlas (Insightful Science, LLC, Boston, MA).

Assay [2] concerns CAL-51 cells. Kind of assay: CAL-51 Cell Proliferation Assay. In kind it is cell-based. The conditions noted are these: for EC50: Homo sapiens, 120 hours incubation, 10-point dose response, 4-fold dilutions starting at 10 μM, Cell-Titer-Glo, read-out: CAL-51 Prolif EC50; for CAL-51 Prolif Ymin: minimal percent of DMSO control observed in the concentrations tested (Ymin-obs), 120 hours. The text has this:
CAL-51 cells were obtained from Bristol Myers Squibb internal cell banks (originally sourced from DSMZ-German Collection of Microorganisms and Cell Cultures GmbH, Germany) and cultured in RPMI complete media (RPMI-1640, 10% Fetal Bovine serum, 1× Antibiotic-Antimycotic, and 1× Non-Essential Amino Acids). Compounds were dispensed into 384-well plates using an acoustic dispenser (Beckman Coulter Life Sciences, Carlsbad, CA) in duplicate with 14 compounds on each plate. For each compound, a 10-point dose response was printed at 4-fold dilutions starting at 10 μM. The DMSO concentration was kept constant for a final assay concentration of 0.1% per well assuming 50 uL final media volume. Compound plates were sealed and frozen at −20° C. until use.
For each assay batch, compound plates were thawed and allowed to reach room temperature, and cells were seeded at 350 cells per well in 50 μl complete RPMI media. After 120 hours of incubation at 37° C. and 5% CO2, cells were lysed by addition of 25 μL of Cell-Titer-Glo Reagent (Promega Corporation, Madison, WI), as per manufacturer's instructions, protected from light, shaken for 20 minutes, and total luminescence read by a CLARIOstar Plus plate reader (BMG LabTech, Cary, NC). Total luminescence signal is linearly correlated with cell number remaining in the well.
Luminescence data was processed per plate by subtracting reagent-only “blank” well luminescence from all measured values and calculating a percent of DMSO control value for each treatment well. Then, to determine the half-maximal effective concentration (EC50) values for cell growth inhibition, a four parameter logistic model was fit to the data for each DMSO-normalized compound: Sigmoidal Dose-Response Model: (FIT=(A+((B−A)/1+((C/x)^D)))) where C is the inflection point (EC50), D is the Hill slope, and A and B are the low and high limits of the fit respectively. The lower limit of the fit (value A) is referred to as Ymin-calculated. The minimal percent of DMSO control that is observed in the concentrations tested for each compound is labeled as “Ymin-obs”, and was recorded and reported in the tables. Sigmoidal fit curves were processed and evaluated using Dotmatics Atlas (Insightful Science, LLC, Boston, MA).

T1 sequence (Q05397 whole entry): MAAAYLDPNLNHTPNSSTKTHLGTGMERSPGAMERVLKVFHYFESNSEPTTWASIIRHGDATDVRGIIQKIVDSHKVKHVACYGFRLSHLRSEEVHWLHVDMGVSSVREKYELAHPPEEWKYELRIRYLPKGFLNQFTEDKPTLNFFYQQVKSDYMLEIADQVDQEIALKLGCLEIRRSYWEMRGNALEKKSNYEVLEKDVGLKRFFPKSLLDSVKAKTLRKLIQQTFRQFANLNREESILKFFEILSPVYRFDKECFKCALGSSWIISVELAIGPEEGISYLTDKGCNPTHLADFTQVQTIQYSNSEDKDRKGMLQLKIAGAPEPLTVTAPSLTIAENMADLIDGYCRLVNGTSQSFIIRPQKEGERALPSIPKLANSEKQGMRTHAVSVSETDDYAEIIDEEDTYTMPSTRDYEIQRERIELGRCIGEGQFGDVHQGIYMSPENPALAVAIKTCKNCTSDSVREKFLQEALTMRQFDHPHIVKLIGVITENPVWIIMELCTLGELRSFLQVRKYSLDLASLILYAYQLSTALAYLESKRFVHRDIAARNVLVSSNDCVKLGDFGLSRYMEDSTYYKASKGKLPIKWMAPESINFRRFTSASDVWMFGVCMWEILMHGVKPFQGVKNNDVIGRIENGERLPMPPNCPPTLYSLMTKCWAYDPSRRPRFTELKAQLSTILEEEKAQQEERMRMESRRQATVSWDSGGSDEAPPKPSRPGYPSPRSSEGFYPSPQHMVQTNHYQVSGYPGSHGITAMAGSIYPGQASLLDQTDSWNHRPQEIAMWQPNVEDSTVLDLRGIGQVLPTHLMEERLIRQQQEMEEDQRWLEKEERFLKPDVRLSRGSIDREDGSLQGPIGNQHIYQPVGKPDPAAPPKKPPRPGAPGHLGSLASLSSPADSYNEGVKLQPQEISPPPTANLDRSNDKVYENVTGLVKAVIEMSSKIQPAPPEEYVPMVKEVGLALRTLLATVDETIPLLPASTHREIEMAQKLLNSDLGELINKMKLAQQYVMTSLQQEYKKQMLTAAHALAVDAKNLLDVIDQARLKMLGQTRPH

For the compound `O=C1CC[C@H](N2Cc3cc(Cn4ncc5c(-c6ncc(C(F)(F)F)cc6Cl)c(F)c(N6CC(F)C6)nc54)ccc3C2=O)C(=O)N1` [Example 1, (3S)-3-[5-({4-[3-chloro-5-(trifluoromethyl)pyridin-2-yl]-5-fluoro-6-(3-fluoroazetidin-1-yl)-1H-pyrazolo[3,4-b]pyridin-1-yl}methyl)-1-oxo-2,3-dihydro-1H-isoindol-2-yl]piperidine-2,6-dione], in assay [1], the DC50 came to 0.14 nM and the “FAK HiBiT Ymin” value is on record as 7.57. In assay [2], the concentration for a half-maximal effect (EC50) was 0.17 nM and the “CAL-51 Prolif Ymin” value is 27.59.
For `O=C1CC[C@H](N2Cc3cc(Cn4ncc5c(-c6ncc(C(F)(F)F)cc6Cl)c(Cl)c(N6CC(F)C6)nc54)ccc3C2=O)C(=O)N1` [Example 2, (3S)-3-[5-({5-chloro-4-[3-chloro-5-(trifluoromethyl)pyridin-2-yl]-6-(3-fluoroazetidin-1-yl)-1H-pyrazolo[3,4-b]pyridin-1-yl}methyl)-1-oxo-2,3-dihydro-1H-isoindol-2-yl]piperidine-2,6-dione] the same measures were 0.24 nM, 7.25, 0.43 nM and 14.10.
For `O=C1CCC(N2Cc3cc(Cn4ncc5c(-c6ncc(C(F)(F)F)cc6Cl)c(F)c(N6CC(F)C6)nc54)ccc3C2=O)C(=O)N1` (centres unmarked) [Example 3, 3-[5-({4-[3-chloro-5-(trifluoromethyl)pyridin-2-yl]-5-fluoro-6-(3-fluoroazetidin-1-yl)-1H-pyrazolo[3,4-b]pyridin-1-yl}methyl)-1-oxo-2,3-dihydro-1H-isoindol-2-yl]piperidine-2,6-dione] the same measures were 0.29 nM, 8.97, 1.42 nM and 23.98.
For `CCOc1cnc(-c2c(Cl)c(N3CC(F)C3)nc3c2cnn3Cc2ccc3c(c2)CN([C@H]2CCC(=O)NC2=O)C3=O)c(C(F)(F)F)c1` [Example 4, (3S)-3-[5-({5-chloro-4-[5-ethoxy-3-(trifluoromethyl)pyridin-2-yl]-6-(3-fluoroazetidin-1-yl)-1H-pyrazolo[3,4-b]pyridin-1-yl}methyl)-1-oxo-2,3-dihydro-1H-isoindol-2-yl]piperidine-2,6-dione] the same measures were 0.42 nM, 7.37, 0.52 nM and 1.90.
With `CN(C)c1cc(-c2ncc(C(F)(F)F)cc2Cl)c2cnn(Cc3ccc4c(c3)CN(C3CCC(=O)NC3=O)C4=O)c2n1` (centres unmarked) [Example 5, 3-[5-({4-[3-chloro-5-(trifluoromethyl)pyridin-2-yl]-6-(dimethylamino)-1H-pyrazolo[3,4-b]pyridin-1-yl}methyl)-1-oxo-2,3-dihydro-1H-isoindol-2-yl]piperidine-2,6-dione], in assay [1], the DC50 came out at 0.42 nM and the “FAK HiBiT Ymin” value was determined as 6.93. Moreover, in assay [2], the EC50 was found to be 0.36 nM and the “CAL-51 Prolif Ymin” value is reported as 29.57.
For `O=C1CC[C@H](N2Cc3cc(Cn4ncc5c(-c6ncc(C(F)(F)F)cc6Cl)cc(N6CC(F)C6)nc54)ccc3C2=O)C(=O)N1` [Example 6, (3S)-3-[5-({4-[3-chloro-5-(trifluoromethyl)pyridin-2-yl]-6-(3-fluoroazetidin-1-yl)-1H-pyrazolo[3,4-b]pyridin-1-yl}methyl)-1-oxo-2,3-dihydro-1H-isoindol-2-yl]piperidine-2,6-dione] the same measures were 0.5 nM, 8.05, 0.4 nM and 31.07.
For `O=C1CC[C@H](N2Cc3cc(Cn4ncc5c(-c6ncc(OC(F)(F)F)cc6Cl)cc(N6CC(F)C6)nc54)ccc3C2=O)C(=O)N1` [Example 7, (S)-3-(5-((4-(3-chloro-5-(trifluoromethoxy)pyridin-2-yl)-6-(3-fluoroazetidin-1-yl)-1H-pyrazolo[3,4-b]pyridin-1-yl)methyl)-1-oxoisoindolin-2-yl)piperidine-2,6-dione] the same measures were 0.57 nM, 8.83, 0.36 nM and 21.87.
For `O=C1CCC(N2Cc3cc(Cn4ncc5c(-c6ncc(Cl)cc6Cl)c(F)c(N6CC(F)C6)nc54)ccc3C2=O)C(=O)N1` (centres unmarked) [Example 8, 3-(5-{[4-(3,5-dichloropyridin-2-yl)-5-fluoro-6-(3-fluoroazetidin-1-yl)-1H-pyrazolo[3,4-b]pyridin-1-yl]methyl}-1-oxo-2,3-dihydro-1H-isoindol-2-yl)piperidine-2,6-dione] the same measures were 0.55 nM, 9.05, 0.85 nM and 17.44.
Take `N#Cc1ccc(-c2c(Cl)c(N3CC(F)C3)nc3c2cnn3Cc2ccc3c(c2)CN(C2CCC(=O)NC2=O)C3=O)c(F)c1` (centres unmarked) [Example 10, 4-(5-chloro-1-{[2-(2,6-dioxopiperidin-3-yl)-1-oxo-2,3-dihydro-1H-isoindol-5-yl]methyl}-6-(3-fluoroazetidin-1-yl)-1H-pyrazolo[3,4-b]pyridin-4-yl)-3-fluorobenzonitrile]: in assay [1], the DC50 was determined as 0.56 nM and the “FAK HiBiT Ymin” value was 6.93. Also, in assay [2], the concentration for a half-maximal effect (EC50) came to 75.4 nM and the “CAL-51 Prolif Ymin” value is 33.21.
As to `O=C1CCC(N2Cc3cc(Cn4ncc5c(-c6ncc(C(F)(F)F)cc6Cl)cc(N6CCCC6)nc54)ccc3C2=O)C(=O)N1` (centres unmarked) [Example 11, 3-[5-({4-[3-chloro-5-(trifluoromethyl)pyridin-2-yl]-6-(pyrrolidin-1-yl)-1H-pyrazolo[3,4-b]pyridin-1-yl}methyl)-1-oxo-2,3-dihydro-1H-isoindol-2-yl]piperidine-2,6-dione], in assay [1], the DC50 was 0.64 nM and the “FAK HiBiT Ymin” value is reported as 6.28. In addition, in assay [2], the EC50 is 0.34 nM and the “CAL-51 Prolif Ymin” value was determined as 22.89.
For the compound `CN(C)c1cc(-c2ccc(C#N)cc2Cl)c2cnn(Cc3ccc4c(c3)CN(C3CCC(=O)NC3=O)C4=O)c2n1` (centres unmarked) [Example 12, 3-chloro-4-[6-(dimethylamino)-1-{[2-(2,6-dioxopiperidin-3-yl)-1-oxo-2,3-dihydro-1H-isoindol-5-yl]methyl}-1H-pyrazolo[3,4-b]pyridin-4-yl]benzonitrile], in assay [1], the DC50 turned out to be 0.67 nM and the “FAK HiBiT Ymin” value was 7.50. In assay [2], the EC50 amounted to 0.99 nM and the “CAL-51 Prolif Ymin” value is 23.97.
